One data set concerns model animals. The settings on record: oral administration for three days; cited from earlier work.
The next data set deals with healthy participants. The settings on record: Phase 1, healthy participants; cited from earlier work.
Data set [1] can be described thus: Evaluation of cell membrane permeability. The settings on record: 10 μM, 120 minutes; for efflux ratio at 120 min, 10 μM: read-out: Efflux Ratio (Papp B to A/Papp A to B); for Papp A→B at 120 min, 10 μM / Papp B→A at 120 min, 10 μM: transport buffer (HBSS+BSA), 37° C. The data set is classed as in vitro ADME. The method, then:
(§1) The test compounds were diluted from 10 mM stock solutions to a concentration of 10 μM using the transport buffer (HBSS+BSA) and applied to the apical or basolateral side of the cell monolayer. After the incubation at 37° C., 5% CO2 and 95% relative humidity for 120 minutes, the permeability of the test compounds in the A to B direction or the B to A direction was dually determined. In addition, the efflux ratio (Papp B to A/Papp A to B) of each compound was determined. The test substances and reference substances were quantitatively analyzed by the LC-MS/MS method based on the analyte/IS peak area ratio.

Another data set addresses T1, eIF2B (Homo sapiens, UniProt P49770+Q9UI10).
T1 construct: endogenous in cells; host or cells: HEK293T/17-ATF4 uORF-Luc-Puro monoclonal cells
Put plainly: ATF4-Luc assay (ATF4 luciferase reporter, thapsigargin-induced stress). The settings on record: HEK293T/17-ATF4 uORF-Luc-Puro monoclonal cells, 50 nM thapsigargin, incubated for 6 hours. It counts as cell-based. An excerpt:
The ATF4 luciferase reporter plasmid consists of two parts, i.e., the 5′ untranslated region sequence of the ATF4 gene and the luciferase coding sequence. Specifically, the ATF4 5′ untranslated region sequence (NCBI database number BC022088.2) containing two upstream open reading frames (uORFs), and the firefly luciferase encoding gene were cloned into the pLVX-Puro vector (YouBio, VT1465). The packaging plasmids of lentivirus were psPAX2 (YouBio, VT1444) and pMD2.G (YouBio, VT1443). 650,000 HEK293T cells were seeded per well of a 6-well plate and cultured overnight in a 5% CO2 incubator. The cells were transfected with the packaged lentivirus for 48 hours and then centrifuged, and the supernatant was discarded. The medium was replaced and changed to the DMEM complete medium containing 0.8 μg/ml puromycin, and the cells were resuspended and then cultured. After one week of cell screening with puromycin, the surviving cells were HEK293T-ATF4 uORF-Luc-Puro polyclonal cells. 200 polyclonal cells were taken and subjected to limiting gradient dilution by using a 96-well plate, so as to obtain monoclonal cells.
The specific method for screening the monoclonal cells involves: placing the 200 polyclonal cells in well A1 of the 96-well plate; step one: performing gradient dilution from columns A1 to H1 at a ratio of 1:2; step two: performing gradient dilution from rows A to H, with each row from wells 1 to 12 at a ratio of 1:2; marking the wells with a theoretical cell number less than 0.5 and observing one by one under a microscope; marking the wells with only one cell; and culturing the cells for two weeks to obtain the monoclonal cells.
By using this cell line and the cold fluorescence readings, the translational regulation of ATF4 can be detected, and the activity of eIF2B activated by the compounds can be tested.
The specific experimental process is as follows: 6000 HEK293T/17-ATF4 uORF-Luc-Puro monoclonal cells were plated in a 384-well plate and allowed to adhere overnight. The test compounds were dissolved in DMSO and diluted to 10 different concentrations, which were respectively added together with 50 nM thapsigargin to the cell culture medium and incubated for 6 hours, wherein the thapsigargin was used to cause cellular stress and upregulate the protein translation of ATF4. Six hours after the addition, the cells were lysed using the One-Glo Luciferase Assay Kit (Promega #E6120), and then the cold fluorescence values were read using the LUM program of the EnVision 2104 plate reader.
EC50 was calculated based on the fluorescence values at 9 concentrations (0.1 nM, 0.3 nM, 1.0 nM, 3.0 nM, 10.0 nM, 30.0 nM, 100.0 nM, 300.0 nM and 1000.0 nM) of each compound and recorded in Table 1.
The ATF4 reporter expression was calculated as follows:
ATF4 reporter expression=(ave_sample-ave_vc)/(ave_pc-ave_vc)
where ave_vc represents the average signal value of negative controls, ave_pc represents the average signal value of positive controls, and ave_sample represents the average signal value of samples.
The dose-response curves were fitted, and the EC50 values were calculated.
The nonlinear regression log(inhibitor) vs. response—variable slope (four parameters) method of GraphPad 9 software was used to fit the corresponding relationship between the ATF4 reporter expression and the compound concentration.
The X-axis represents the log value of the compound concentration; and the Y-axis represents the ATF4 reporter expression.
Background: A reporter such as luciferase makes a cellular process visible.

Another data set relates to cell monolayer. Nature of the data set: Evaluation of cell membrane permeability. The data set is classed as in vitro ADME. The method, then:
as §1

A short description of data set [2]: Pharmacokinetic evaluation in mice. The data set is classed as in vivo. The method, then:
The test compounds were dissolved in vehicles to prepare clear solutions or homogeneous suspensions. Three mice were placed in each group and received an intravenous (IV) administration via the tail vein at 1 mg/kg and an oral (PO) administration at 30 mg/kg. Blood samples were collected at 0.083 h, 0.25 h, 0.5 h, 1 h, 2 h, 4 h, 8 h, and 24 h after the intravenous administration, and at 0.25 h, 0.5 h, 1 h, 2 h, 4 h, 6 h, 8 h, and 24 h after the oral administration. Plasma samples were centrifuged, and the supernatant was collected to prepare samples, which were then quantitatively analyzed by LC/MS/MS.

Another data set concerns mouse models. The settings on record: cited from earlier work.

Molecules are shown by their SMILES. Bounds are passed on as bounds.

T1 sequence (P49770 whole entry): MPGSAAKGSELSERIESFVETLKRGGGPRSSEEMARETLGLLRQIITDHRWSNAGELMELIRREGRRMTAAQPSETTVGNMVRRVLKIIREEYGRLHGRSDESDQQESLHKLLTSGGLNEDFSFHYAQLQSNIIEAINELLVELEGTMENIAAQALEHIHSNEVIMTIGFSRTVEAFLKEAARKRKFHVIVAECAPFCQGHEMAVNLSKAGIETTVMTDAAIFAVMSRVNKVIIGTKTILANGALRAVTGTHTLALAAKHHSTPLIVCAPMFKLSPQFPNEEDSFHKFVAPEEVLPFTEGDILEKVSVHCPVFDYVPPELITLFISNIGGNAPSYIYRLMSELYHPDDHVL
T1 sequence (Q9UI10 whole entry): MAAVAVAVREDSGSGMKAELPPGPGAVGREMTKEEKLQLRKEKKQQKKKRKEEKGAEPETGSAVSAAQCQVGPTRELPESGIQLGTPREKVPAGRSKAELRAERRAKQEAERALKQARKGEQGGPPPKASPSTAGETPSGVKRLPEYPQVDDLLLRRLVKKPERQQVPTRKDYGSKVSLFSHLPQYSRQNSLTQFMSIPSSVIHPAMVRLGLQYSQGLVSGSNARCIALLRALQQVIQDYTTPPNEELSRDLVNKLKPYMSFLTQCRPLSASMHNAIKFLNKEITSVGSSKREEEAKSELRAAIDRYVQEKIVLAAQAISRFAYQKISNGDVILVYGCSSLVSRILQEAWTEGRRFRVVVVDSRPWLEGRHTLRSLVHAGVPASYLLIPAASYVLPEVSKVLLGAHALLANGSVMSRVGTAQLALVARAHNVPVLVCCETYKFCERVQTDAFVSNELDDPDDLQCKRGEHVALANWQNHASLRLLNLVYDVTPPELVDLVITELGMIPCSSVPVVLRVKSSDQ
T1 sequence (Q14232 whole entry partner): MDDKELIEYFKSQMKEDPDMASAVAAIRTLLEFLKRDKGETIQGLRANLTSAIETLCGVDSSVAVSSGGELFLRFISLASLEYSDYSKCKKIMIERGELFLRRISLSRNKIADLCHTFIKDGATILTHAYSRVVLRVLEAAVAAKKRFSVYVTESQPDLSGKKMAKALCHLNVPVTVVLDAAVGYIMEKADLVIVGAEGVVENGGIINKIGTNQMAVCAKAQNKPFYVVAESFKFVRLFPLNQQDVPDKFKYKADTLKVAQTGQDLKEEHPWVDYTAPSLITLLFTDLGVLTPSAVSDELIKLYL
T1 sequence (Q9NR50 whole entry partner): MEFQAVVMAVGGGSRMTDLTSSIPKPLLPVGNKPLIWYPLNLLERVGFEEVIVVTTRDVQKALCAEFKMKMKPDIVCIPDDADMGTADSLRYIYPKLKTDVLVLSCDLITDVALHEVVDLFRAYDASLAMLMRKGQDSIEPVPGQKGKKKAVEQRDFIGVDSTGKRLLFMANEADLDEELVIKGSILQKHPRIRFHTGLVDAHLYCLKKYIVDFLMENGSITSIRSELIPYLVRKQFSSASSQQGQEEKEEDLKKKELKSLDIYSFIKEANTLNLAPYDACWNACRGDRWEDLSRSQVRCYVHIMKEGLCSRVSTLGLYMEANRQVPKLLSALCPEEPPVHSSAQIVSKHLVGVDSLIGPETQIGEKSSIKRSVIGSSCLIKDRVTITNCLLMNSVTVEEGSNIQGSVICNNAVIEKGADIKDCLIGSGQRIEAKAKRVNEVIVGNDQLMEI
T1 sequence (Q13144 whole entry partner): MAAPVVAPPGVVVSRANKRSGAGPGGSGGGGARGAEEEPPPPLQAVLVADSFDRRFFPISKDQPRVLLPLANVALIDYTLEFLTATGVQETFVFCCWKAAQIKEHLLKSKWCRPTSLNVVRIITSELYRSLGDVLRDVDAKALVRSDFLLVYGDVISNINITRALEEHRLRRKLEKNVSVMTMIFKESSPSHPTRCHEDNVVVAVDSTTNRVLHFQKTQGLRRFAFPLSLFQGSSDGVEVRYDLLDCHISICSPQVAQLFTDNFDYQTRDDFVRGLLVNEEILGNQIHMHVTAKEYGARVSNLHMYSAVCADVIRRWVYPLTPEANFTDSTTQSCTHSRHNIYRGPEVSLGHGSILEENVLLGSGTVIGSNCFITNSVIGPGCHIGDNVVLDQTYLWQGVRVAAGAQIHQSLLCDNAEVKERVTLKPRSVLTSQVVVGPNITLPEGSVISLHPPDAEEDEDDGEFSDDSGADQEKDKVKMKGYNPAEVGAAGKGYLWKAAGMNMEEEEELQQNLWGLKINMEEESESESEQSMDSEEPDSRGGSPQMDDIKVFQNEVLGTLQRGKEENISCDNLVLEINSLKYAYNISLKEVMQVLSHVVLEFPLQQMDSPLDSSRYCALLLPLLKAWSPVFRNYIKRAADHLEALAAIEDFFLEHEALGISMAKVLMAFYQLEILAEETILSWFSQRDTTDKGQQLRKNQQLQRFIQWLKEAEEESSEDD

For `NC(CO)(CO)CO.O=C(COc1ccc(Cl)c(F)c1)NC12CCC(NC(=O)COc3ccc(Cl)c(F)c3)(CC1)[C@@H](OCOP(=O)([O-])O)C2.[Na+]` [ABBV-CLS-7262], the “brain function (in words)” value in the data set on model animals was “restored to youthful levels”.

With `O=C(COc1ccc(Cl)cc1)NC12CC(c3nnc([C@H]4C[C@@H](OC(F)(F)F)C4)o3)(C1)C2` [DNL-343], in the data set with healthy participants, the “safety and tolerability (in words)” value was “demonstrated its safety and tolerability”.

What is called Papp A→B is the apparent permeability from the apical to the basolateral side of a cell layer. A high value points to ready permeation. As usually defined, the Papp B→A is the apparent permeability from the basolateral to the apical side of a cell layer. Regarding `C[C@H]1O[C@@H](O[C@H]2[C@@H](O)C[C@H](O[C@H]3[C@@H](O)C[C@H](O[C@H]4CC[C@@]5(C)[C@H](CC[C@@H]6[C@@H]5C[C@@H](O)[C@]5(C)[C@@H](C7=CC(=O)OC7)CC[C@]65O)C4)O[C@@H]3C)O[C@@H]2C)C[C@H](O)[C@@H]1O` [Digoxin], in data set [1], the efflux ratio at 120 min, 10 μM stood at 44.7; the apical-to-basolateral permeability (Papp A→B) at 120 min, 10 μM was 0.25 ×10⁻⁶ cm/s; the basolateral-to-apical permeability (Papp B→A) at 120 min, 10 μM stood at 11.2 ×10⁻⁶ cm/s.

A word on the EC50: it is the concentration needed to bring the measured effect to its halfway point. Lower therefore signals greater potency. In general, AUC(0-inf) refers to the area under the concentration-time curve extrapolated to infinity. The clearance is the rate of elimination divided by the concentration. For orientation: half-life means the time in which the quantity being followed falls by half. Read a low half-life as rapid decline. One may read the Cmax as the peak of the concentration-time curve. A word on the Tmax: it is the time from dosing to the highest level. On eIF2B, `O=C(COc1ccc(Cl)c(F)c1)NC1CC2(C1)CC(c1nnc(N3CC(OC(F)(F)F)C3)o1)C2` (centres unmarked) [III-1] came in with an EC50 of under 10 nM. For the same molecule, in the data set on cell monolayer, the “P-glycoprotein substrate (in words)” value is listed as “not P-glycoprotein substrates” and the “cell membrane permeability (in words)” value is “good cell membrane permeability”. Also, in data set [1], the efflux ratio at 120 min, 10 μM stood at 1.05; the apparent permeability from apical to basolateral (Papp A→B) at 120 min, 10 μM was 17.7 ×10⁻⁶ cm/s; the apparent permeability from basolateral to apical (Papp B→A) at 120 min, 10 μM amounted to 18.6 ×10⁻⁶ cm/s. Besides, in data set [2] (mouse, in vivo), the “pharmacokinetic properties in mice (in words)” value was “excellent pharmacokinetic properties in mice”. For the same molecule, in data set [2] (plasma, mouse IV 1 mg/kg), the AUC(0-inf) was 2230 ng·h/mL, the C0 turned out to be 1340 ng/mL, the clearance is 7.5 mL/min/kg and the half-life was 2.07 h. The Vd in data set [2] (plasma, mouse IV 1 mg/kg, read-out: Vss) was determined as 1.18 L/kg. Further, in data set [2] (plasma, mouse PO 30 mg/kg), the AUC(0-inf) worked out at 111000 ng·h/mL, the concentration peaked (Cmax) at 21500 ng/mL, the Tmax stood at 1.33 h and the bioavailability was determined as 177%. Besides, the half-life in data set [2] (plasma, mouse PO 30 mg/kg) was 1.93 h.

Consider `O=C(COc1ccc(Cl)cc1)NC1CCC(NC(=O)COc2ccc(Cl)cc2)CC1` (centres unmarked) [ISRIB], for which the “long-term memory (in words)” value in the data set with mouse models was “improve long-term memory”.

On to `O=C(COc1ccc(Cl)c(F)c1)NC1CC2(CCN(C(=O)c3cc4cc(Cl)ccc4o3)CC2)C1` [IV-19], for which the EC50 on eIF2B is 10 to 100 nM.

With `O=C(NC1CC2(CCN(C(=O)c3cc4cc(Cl)ccc4o3)CC2)C1)c1cc2cc(Cl)ccc2o1` [IV-20], on eIF2B, the EC50 was under 10 nM.

As for `CC(C)NCC(O)COc1cccc2ccccc12` (centres unmarked) [Propranolol], in data set [1], the apparent permeability from apical to basolateral (Papp A→B) at 120 min, 10 μM came to 32.4 ×10⁻⁶ cm/s and the apparent permeability from basolateral to apical (Papp B→A) at 120 min, 10 μM worked out at 20.1 ×10⁻⁶ cm/s.

In turn, `O=C(COc1ccc(Cl)c(F)c1)NC1CCC2(CC1)CN(C(=O)COc1ccc(Cl)c(F)c1)C2` [V-10] yielded a half-maximal effective concentration (EC50) at eIF2B of 10 to 100 nM.

Take `O=C(COc1ccc(Cl)c(F)c1)NC1CCC2(CC1)CN(C(=O)c1cnc(C(F)F)cn1)C2` [V-11]: the EC50 on eIF2B was over 100 nM.

Take `O=C(COc1ccc(Cl)c(F)c1)NC1CCC2(CC1)CN(C(=O)C1CNc3cc(Cl)ccc3O1)C2` (centres unmarked) [V-12]: on eIF2B, the 50% effective concentration (EC50) was over 100 nM.

`O=C(COc1ccc(Cl)c(F)c1)NC1CC2(CCC(c3nnc(N4CC(OC(F)(F)F)C4)o3)CC2)C1` (centres unmarked) [VI-1]: on eIF2B, the EC50 was in the range of 10 to 100 nM.

Molecule `O=C(COc1ccc(Cl)c(F)c1)NC1CCC(c2nnc(N3CC(OC(F)(F)F)C3)o2)C2(CC2)C1` (centres unmarked) [VIII-1] had an EC50 on eIF2B of under 10 nM.

Source of the values: patent US20260035355A1, “COMPOUND, PHARMACEUTICAL COMPOSITION COMPRISING SAME, AND USE THEREOF” (SHENZHEN ZHONGGE BIOLOGICAL TECHNOLOGY CO., LTD., priority 2022, published 2026).
